One may read the melting point as the temperature of the solid-liquid transition.

“Also recorded” adds a separate entry of the source.

Chain of α-glucosidase (P53341 whole entry): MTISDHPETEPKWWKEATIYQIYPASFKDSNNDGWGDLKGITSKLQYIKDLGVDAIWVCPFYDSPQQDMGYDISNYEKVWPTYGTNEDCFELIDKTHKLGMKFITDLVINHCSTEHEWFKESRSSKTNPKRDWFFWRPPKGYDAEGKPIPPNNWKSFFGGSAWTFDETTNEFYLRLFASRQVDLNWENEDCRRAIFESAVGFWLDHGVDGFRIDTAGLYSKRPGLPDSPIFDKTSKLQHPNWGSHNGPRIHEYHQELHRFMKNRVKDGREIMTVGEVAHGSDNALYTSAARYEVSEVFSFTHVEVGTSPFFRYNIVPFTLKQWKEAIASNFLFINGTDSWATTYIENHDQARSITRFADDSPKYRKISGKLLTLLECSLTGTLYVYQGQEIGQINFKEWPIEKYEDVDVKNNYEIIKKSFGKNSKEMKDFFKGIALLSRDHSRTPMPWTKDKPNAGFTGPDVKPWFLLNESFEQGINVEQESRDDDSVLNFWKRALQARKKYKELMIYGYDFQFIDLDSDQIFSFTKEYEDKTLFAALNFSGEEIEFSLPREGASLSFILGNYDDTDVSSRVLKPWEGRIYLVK

Tested on in one data set: not given
In turn, `CC1(C)C2CC[C@]3(C)C(CCC4[C@@H]([C@@]5(C)CCC(=O)O5)CC[C@]43C)[C@@]2(C)CC[C@@H]1OC(=O)/C=C/c1ccccc1` (stereo partly drawn) [Compound 6e, 17-[(5α-methyl)-3,4H-furane-2-one]-3β-(O-cinnamoyl)-25,26,27-tris-nor-dammarane] came in with a melting point of 236 to 238 °C. On the same count and under the same terms, the result for `CC1(C)C2CC[C@]3(C)C(CCC4[C@@H]([C@@]5(C)CCC(=O)O5)CC[C@]43C)[C@@]2(C)CC[C@@H]1OC(=O)c1ccccc1O` (stereo partly drawn) [Compound 6d, 17-[(5α-methyl)-3,4H-furane-2-one]-3β-(O-salycyloyl)-25,26,27-tris-nor-dammarane] reads 186 to 187 °C; that for `CC(C)C(=O)O[C@H]1CC[C@@]2(C)C(CC[C@]3(C)C2CCC2[C@@H]([C@@]4(C)CCC(=O)O4)CC[C@]23C)C1(C)C` (stereo partly drawn) [Compound 6c, 17-[(5α-methyl)-3,4H-furane-2-one]-3β-(O-isobutyryl)-25,26,27-tris-nor-dammarane], 206 to 207 °C. The same measure, in the same setting: the result for `CC1(C)C(=O)CC[C@@]2(C)C1CC[C@]1(C)C2CCC2[C@@H]([C@@]3(C)CCC(=O)O3)CC[C@]21C` (stereo partly drawn) [Compound 4, 17-[(5α-methyl)-3,4H-furane-2-one]-25,26,27-tris-nor-dammar-3-one] reads 118.4 to 120.3 °C. Still for that read-out and setting: in the case of `CC(=O)O[C@H]1CC[C@@]2(C)C(CC[C@]3(C)C2CCC2[C@@H]([C@@]4(C)CCC(=O)O4)CC[C@]23C)C1(C)C` (stereo partly drawn) [Compound 6a, 17-[(5α-methyl)-3,4H-furane-2-one]-3β-(O-acetyl)-25,26,27-tris-nor-dammarane] it was 248 to 249 °C; in that of `CC1(C)C2CC[C@]3(C)C(CCC4[C@@H]([C@@]5(C)CCC(=O)O5)CC[C@]43C)[C@@]2(C)CC[C@@H]1O` (stereo partly drawn) [Compound 5, 3β-hydroxy-17-[(5α-methyl)-3,4H-furane-2-one]-25,26,27-tris-nor-dammarane], 195 to 196 °C; in that of `CCCCC(=O)O[C@H]1CC[C@@]2(C)C(CC[C@]3(C)C2CCC2[C@@H]([C@@]4(C)CCC(=O)O4)CC[C@]23C)C1(C)C` (stereo partly drawn) [Compound 6b, 17-[(5α-methyl)-3,4H-furane-2-one]-3β-(O-pentanoyl)-25,26,27-tris-nor-dammarane], 134 to 135 °C.

The next data set addresses α-glucosidase (Saccharomyces cerevisiae, UniProt P53341). In kind it is biochemical. On the procedure: The bioassay was carried out on 96 well-plates (200 μL per well). A solution of the test samples in 10% dimethyl sulfoxide (DMSO) was diluted further to concentrations of 1024, 256, 64, 16, 4, and 1 μg mL^−1. Each concentration of the test samples (10 μL) was incubated at 37 °C with phosphate buffer 100 mM (pH 6.8, 40 μL), α-glucosidase 0.4 U mL^−1 (25 μL), and p-nitrophenyl α-D-glucopyranoside 2.5 mM (25 μL). The reaction was stopped after 30 min by adding 100 μL of 0.1 M Na2CO3. The enzyme activities were measured based on the absorbance at λmax 405 nm of the test samples. […] Percentage inhibition was calculated as follows:[38]α-Glucosidase inhibition (%) = [Abs(control) − Abs(sample)]/Abs(control) × 100%
On to `CC(C)=CCCC(C)(O)C1CCC2(C)C1CCC1C3(C)CCC(=NOC(=O)C(C)C)C(C)(C)C3CCC12C` [Compound 3m, 20(S)-hydroxydammar-24-ene-3-oximyl isobutyrate], for which the “α-glucosidase inhibition, result in words” value (“α-glucosidase inhibition” for short) is given as “no inhibition activity; also recorded: unnoticeable inhibition”.

As to `CC(C)=CCCC(C)(O)C1CCC2(C)C1CCC1C3(C)CCC(=NOC(=O)c4cnc(C)cn4)C(C)(C)C3CCC12C` [Compound 3a, 20(S)-hydroxy dammar-24-ene-3-oximyl-[5-methyl-3,6-diazine-1-carboxylate]], the “α-glucosidase inhibition” value is recorded as “no inhibition activity; also recorded: unnoticeable inhibition”.

For `CC(C)=CCCC(C)(O)C1CCC2(C)C1CCC1C3(C)CCC(=NOC(=O)c4ccc(F)cc4)C(C)(C)C3CCC12C` [Compound 3g, 20(S)-hydroxydammar-24-ene-3-oximyl-[4-fluorobenzoate]], the “α-glucosidase inhibition” value is “no α-glucosidase inhibition; also recorded: no inhibition activity; also recorded: unnoticeable inhibition”.

Take `CC1(C)C(=O)CC[C@@]2(C)C1CC[C@]1(C)C2CCC2[C@@H]([C@@]3(C)CCC(=O)O3)CC[C@]21C` (stereo partly drawn) [Compound 4, 17-[(5α-methyl)-3,4H-furane-2-one]-25,26,27-tris-nor-dammar-3-one]: the “α-glucosidase inhibition” value is on record as “no inhibition activity; also recorded: unnoticeable inhibition”. Still for that read-out and setting: in the case of `CC(C)=CCCC(C)(O)C1CCC2(C)C1CCC1C3(C)CCC(=NOC(=O)c4ccccc4I)C(C)(C)C3CCC12C` [Compound 3h, 20(S)-hydroxydammar-24-ene-3-oximyl-[2-iodobenzoate]] it was “loss of their activity; also recorded: no inhibition activity; also recorded: unnoticeable inhibition”; in that of `CC(C)=CCCC(C)(O)C1CCC2(C)C1CCC1C3(C)CCC(=NOC(=O)c4cc(I)cc(I)c4O)C(C)(C)C3CCC12C` [Compound 3d, 20(S)-hydroxydammar-24-ene-3-oximyl-[2-hydroxy-3,5-diiodobenzoate]], “loss of their activity; also recorded: no inhibition activity”. The same measure, in the same setting: in the case of `CC(C)=CCC[C@](C)(O)[C@H]1CC[C@]2(C)[C@@H]1CC[C@@H]1[C@@]3(C)CCC(=O)C(C)(C)[C@@H]3CC[C@]12C` [Compound 1, dipterocarpol] it was “weak activity”.

The values are drawn from article PMC9043233, “Newly synthesised oxime and lactone derivatives from Dipterocarpus alatus dipterocarpol as anti-diabetic inhibitors: experimental bioassay-based evidence and theoretical computation-based prediction” (RSC Advances, 2021).
